1 molecule from patent US20230277483A1, “COMPOSITIONS AND METHODS TO TREAT INFLAMMATION” (University of Iowa Research Foundation, priority 2022, published 2023) can be followed below.

The test system of this assay is S. mitis (Sm, ATCC49456). The assay is described as follows: Bacterial proliferation (growth profile). Type of assay: cell-based, Streptococcus mitis. The conditions noted are these: HCA at 0.1 μM; aerobic culture. As to the method:
Sg metabolites promote commensal bacterial proliferation and inhibit periodontopathogenic bacterial proliferation and colonization. Commensal bacteria, Sg, S. sanguinis (Ss, ATCC10556), S. mitis (Sm, ATCC49456) and S. oralis (So, ATCC 35037) were cultured in BHI medium. In addition, pathogenic bacteria, Pg was cultured using BHI and Tf (ATCC43037), and Td (ATCC 35405) were grown in Thioglycollate medium with vitamin K and Hemin in 90% N2, 5% H2, 5% CO2. The Sg metabolites were diluted using DMEM and added to the bacteria with the similar OD600 value. The same amount of DMEM was used as a control. During the exponential growth of bacteria, the OD600 value was measured to determine the proliferation. […] In addition, to determine the function of Sg metabolites on Pg colonization, Pg were inoculated in 24-well plates containing BHI or BHI supplemented with DMEM or Sg metabolites. […]
HCA promotes proliferation of health related bacteria and inhibits proliferation and attachment of periodontopathogenic bacteria. […] The composition of the microbiomes was determined by amplifying the V3 and V4 regions of the 16S rRNA genes. Raw data in FASTQ format were filtered and denoised using DADA2 (Divisive Amplicon Denoising Algorithm) to generate amplicon sequence variants (ASV) or operational taxonomical units (OTUs) that were then analyzed by QIIME2.

`O=C(O)CCCCCO` [HCA, 6-hydroxycaproic acid]: the “proliferation of S. mitis” value is on record as “improve proliferation”.
